Source: patent US10183944B2 (Asana Biosciences, LLC, priority 2011, dated 2019)

Columns and labels:
JAK2 = JAK2 (Homo sapiens (Human), UniProt O60674); test: Inhibition of enzymatic JAK2 kinase activity (TR-FRET); type: biochemical; details: read-out: IC50 JAK
Method in brief: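 Enzyme preincubated with compound 30 min at RT, then Ulight-poly-GT substrate and ATP added for 60 min at RT. EDTA stop, Eu-antiphosphotyrosine antibody; TR-FRET ratio 665/615 nm (ex 340 nm), blank-corrected; % inhibition versus positive control.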

[1] = target: Syk (356-635 amino acids) catalytic domain (Homo sapiens (Human), UniProt P43405); test: Inhibition of enzymatic Syk kinase activity (radiometric); type: biochemical; details: read-out: IC50 Syk
Method in brief: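 Human Syk (356-635) kinase domain (0.035–7.5 ng/reaction) preincubated with compound 30 minutes at room temperature, then reacted with pG4T substrate, 100 μM ATP (stock) and γ-32P-ATP for 10 minutes at 30° C. Reaction stopped with HCl/ATP, spotted on P81 paper, washed and counted by scintillation. Percent inhibition versus no-compound counts.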

JAK2, sequence (O60674 808-1132): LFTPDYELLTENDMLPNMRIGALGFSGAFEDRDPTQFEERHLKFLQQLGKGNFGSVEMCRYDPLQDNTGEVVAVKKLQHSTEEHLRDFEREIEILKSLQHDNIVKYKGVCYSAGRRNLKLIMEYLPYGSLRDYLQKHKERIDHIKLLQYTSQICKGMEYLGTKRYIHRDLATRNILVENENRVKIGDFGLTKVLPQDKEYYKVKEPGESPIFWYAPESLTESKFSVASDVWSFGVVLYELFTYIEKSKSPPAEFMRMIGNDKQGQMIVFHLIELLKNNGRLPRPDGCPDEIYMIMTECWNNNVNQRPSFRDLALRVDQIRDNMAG

Compound | IC50 (JAK2) | IC50 [1]
Cl.O=c1[nH]ncc2nc(-c3ccccc3)nc(Nc3ccc(CN4CCNCC4)cc3)c12 [Example 7, 2-phenyl-4-(4-(piperazin-1-ylmethyl)phenylamino)pyrimido[4,5-d]pyridazin-5(6H)-one hydrochloride] | < 50 nM | < 50 nM
O=C(O)CC1CCN(c2ccc(Nc3nc(N4CCCCCC4)nc4cn[nH]c(=O)c34)cn2)CC1 [Example 108, 2-(1-(5-((2-(azepan-1-yl)-5-oxo-5,6-dihydropyrimido[4,5-d]pyridazin-4-yl)amino)pyridin-2-yl)piperidin-4-yl) acetic acid] | < 10 nM | < 10 nM
N#CCC1CCN(c2nc(Nc3ccc(N4CCC(O)CC4)cc3)c3c(=O)[nH]ncc3n2)CC1 [Example 189, 2-(1-(4-((4-(4-hydroxypiperidin-1-yl)phenyl)amino)-5-oxo-5,6-dihydropyrimido[4,5-d]pyridazin-2-yl)piperidin-4-yl)acetonitrile] | < 50 nM | < 10 nM
N#CCC1CCN(c2nc(Nc3ccc(N4CCN(CCO)CC4)cc3)c3c(=O)[nH]ncc3n2)CC1 [Example 191, 2-(1-(4-((4-(4-(2-hydroxyethyl)piperazin-1-yl)phenyl)amino)-5-oxo-5,6-dihydropyrimido[4,5-d]pyridazin-2-yl)piperidin-4-yl)acetonitrile] | < 10 nM | < 10 nM
O=C(O)C1CC12CCN(c1ccc(Nc3nc(N4CCCCCC4)nc4cn[nH]c(=O)c34)cc1)CC2 (centres unmarked) [Example 62, 6-(4-((2-(azepan-1-yl)-5-oxo-5,6-dihydropyrimido[4,5-d]pyridazin-4-yl)amino)phenyl)-6-azaspiro[2.5]octane-1-carboxylic acid] | < 10 nM | < 10 nM

Further lines, results first:

IC50 (JAK2) | IC50 [1] | Compound
< 10 nM | < 50 nM | O=C(O)C1CCN(c2ccc(Nc3nc(-c4ccccc4)nc4cn[nH]c(=O)c34)cc2)CC1 [Example 13, 1-(4-(5-oxo-2-phenyl-5,6-dihydropyrimido[4,5-d]pyridazin-4-ylamino)phenyl)piperidine-4-carboxylic acid]
< 10 nM | < 50 nM | O=C(O)C1CC12CCN(c1ccc(Nc3nc(-c4ccccc4)nc4cn[nH]c(=O)c34)cc1)CC2 (centres unmarked) [Example 19, 6-(4-(5-oxo-2-phenyl-5,6-dihydropyrimido[4,5-d]pyridazin-4-ylamino)phenyl)-6-azaspiro[2.5]octane-1-carboxylic acid]
